Laboratory results taken from patent EP0020230A2, “p-Biphenyl-4-methyl-2-butenoic acids, process for their preparation, pharmaceutical compositions containing them and their use” (PIERRE FABRE S.A., priority 1979, dated 1980).
Read-outs that look alike come from different tables or passages of the source.

Key:
[1] = test system: injection de phényl benzoquinone; assay: analgesic activity, phenylbenzoquinone test (Siegmund et al.); format: in vivo
Method: L'activité antalgique a été étudiée selon Siegmund et Coll.
Les composés sont administrés par voie orale 30 minutes avant l'injection de phényl benzoquinone.

[2] = test system: oedème provoqué par injection de carragénine dans la patte du rat; assay: carrageenan-induced paw oedema (Winter, Risley, Nuss); format: in vivo; settings: oral, suspension in tween-water, 2 hours before the test, read-out: ED 50 (dose diminuant de 50 % le volume de la patte)
From the text: Les propriétés anti-inflammatoires ont été révélées par le test de l'oedème provoqué par injection de carragénine dans la patte du rat selon la technique de C. Winter, E. Risley, et G. Nuss. Proc. Soc. Exper. Biol. Med., 1962, 111, 544-547.
Les produits ont été administrés par voie orale en suspension dans le mélange tween-eau 2 heures avant l'expérimentation.

[3] = acute oral toxicity (LD50, method of Miller and Tainter); settings: in vivo, mouse about 20 g, read-out: DL 50 voie orale
From the text: L'étude de la toxicité a été effectuée chez la souris conventionnelle pesant environ 20 grammes..
Les substances ont été administrées par voie orale, la DL 50 est calculée suivant la méthode de L.C. Miller et M.L. Tainter, Proc. Soc. Exper. Biol. Med., 1944, 57, 261.

[4] = test system: granulome aux pellets de coton; assay: cotton pellet granuloma (Meier, Schuler, Desaulles); format: in vivo; settings: 120 h; dose from which a clear reduction is seen; results read after 5 days; read-out: réduction nette du poids du granulome à partir de
Method: Les résultats obtenus sur le granulome aux pellets de coton selon la technique de R. Meier, Schuler et Desaulles - Experientia 1950, 6, 469, permettent de mettre en évidence une réduction nette du poids du granulome à partir de 10 mg/kg pour le F 1920 et le F 2073.
Les résultats sont relevés au bout de 5 jours et aucune modification n'est observée, comparativement aux témoins, en ce qui concerne

[5] = oral, 30 minutes before injection of phenylbenzoquinone, read-out: DE 50 (the source's name)

Structure (SMILES)	ED50 [1, 5]	ED50 [2]	LD50 [3]	minimal effective dose [4]	ED50 ([1]; po, read-out: DE 50)
CC(/C=C/c1ccc(-c2ccccc2)cc1)C(=O)O (stereo not drawn) [F 1920, acide trans p-biphényl-4, méthyl-2 buten-3 oïque]	10 mg/kg	25 mg/kg	500 mg/kg	≥ 10 mg/kg	
CC(/C=C/c1ccc(-c2ccccc2Cl)cc1)C(=O)O (stereo not drawn) [F 2073, acide trans orthochlorophényl-4' phényl-4 méthyl-2 buten-3 oïque]	7 mg/kg	15 mg/kg	750 mg/kg	≥ 10 mg/kg	
CC(/C=C/c1ccc(-c2ccccc2F)cc1)C(=O)O (stereo not drawn) [Acide trans orthofluorophényl-4' phényl-4 méthyl-2 buten-3 oïque]	5 mg/kg		1000 mg/kg		
O=C(OCC(O)CO)c1ccccc1Nc1ccnc2cc(Cl)ccc12 (stereo not drawn) [Glafénine, reference compound]	36 mg/kg				
CC(=O)Oc1ccccc1C(=O)O [Acide acétyl salicylique, reference compound]					100 mg/kg
